Here are results for 15 compounds from US20080319065A1, “Systemic and Intrathecal Effects of a Novel Series of Phospholipase A2 Inhibitors on Hyperalgesia and Spinal Pge2 Release” (The Regents of the University of California, priority 2005, published 2008).

Type in all cases: biochemical
Experiment [1] concerns the target T1, Group IVA cPLA2 (GIVA PLA2) (Homo sapiens, UniProt P47712).
T1 sequence (P47712 1-749): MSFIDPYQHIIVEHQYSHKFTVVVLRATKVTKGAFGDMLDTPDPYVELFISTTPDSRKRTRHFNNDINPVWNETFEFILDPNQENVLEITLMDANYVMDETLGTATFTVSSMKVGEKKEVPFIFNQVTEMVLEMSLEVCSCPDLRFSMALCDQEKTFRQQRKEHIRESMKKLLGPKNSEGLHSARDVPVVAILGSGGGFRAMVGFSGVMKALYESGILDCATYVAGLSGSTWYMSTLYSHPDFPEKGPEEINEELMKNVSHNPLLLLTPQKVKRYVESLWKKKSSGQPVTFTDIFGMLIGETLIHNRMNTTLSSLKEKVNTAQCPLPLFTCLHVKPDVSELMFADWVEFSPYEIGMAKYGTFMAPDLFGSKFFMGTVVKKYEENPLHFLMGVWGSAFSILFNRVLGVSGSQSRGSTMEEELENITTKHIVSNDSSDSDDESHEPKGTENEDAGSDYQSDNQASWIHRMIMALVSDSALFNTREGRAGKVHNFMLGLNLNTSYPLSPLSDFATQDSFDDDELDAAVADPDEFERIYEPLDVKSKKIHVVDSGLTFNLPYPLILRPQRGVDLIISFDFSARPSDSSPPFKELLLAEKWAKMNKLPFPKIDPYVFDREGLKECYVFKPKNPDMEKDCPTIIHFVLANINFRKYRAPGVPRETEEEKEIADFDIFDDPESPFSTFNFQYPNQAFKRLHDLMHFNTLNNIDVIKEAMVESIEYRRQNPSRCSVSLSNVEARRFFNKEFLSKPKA
The experiment in a line: In vitro Group IVA cPLA2 mixed micelle assay. Particulars: for inhibition at 0.091 mole fraction: read-out: cPLA2 inh, percent inhibition (converted); for Inhibition of GIVA PLA2: at highest dose; for cPLA2 inh, XI(50): Table 3. How it is done: (§1) Numerous 2-oxoamides were tested for inhibition of PLA2s in in vitro assay systems. The data, summarized in Tables 1a, 1b and 2 are represented as XI(50) values unless otherwise noted. XI(50) is defined as the inhibitor concentration that produced 50% inhibition. XI(50) is used as opposed to the more common IC50 because GIVA and GVIA PLA2 are active at a two-dimensional lipid interface rather than in three-dimensional solution. (Deems, Anal. Biochem., 287:1-16, 2000). The 2-oxoamide inhibitors likely partition to the micelle interface and therefore must be represented as a percentage of surface concentration (mole fraction) as opposed to bulk concentration (molar units). (Kokotos, et al., J. Med. Chem., 45:2891-2893, 2002).
(§2) In vitro Group IV cPLA2 and Group VI iPLA2 assays were done as previously described (Kokotos, et al., supra, 2002). Briefly, 100 μM lipid substrate and 100,000 cpm radiolabeled analog were dried down under N2 and dissolved in assay buffer containing 400 μM Triton X-100 to yield a mixed micelle substrate solution. Inhibitors dissolved in DMSO were added to the reaction tubes and allowed to incubate with substrate for five minutes at 40° C. Pure enzyme was added to yield a final volume of 500 μl, and digestion was carried out at 40° C. for 30 minutes. Reactions were quenched and extracted using the Dole method and products were quantified by liquid scintillation counting. Percent inhibition was determined at a range of inhibitor mole fraction concentrations for XI(50) calculations.

The target of experiment [2] is T2, Group VIA iPLA2 (GVIA PLA2) (Homo sapiens, UniProt O60733).
T2 sequence (O60733 1-806): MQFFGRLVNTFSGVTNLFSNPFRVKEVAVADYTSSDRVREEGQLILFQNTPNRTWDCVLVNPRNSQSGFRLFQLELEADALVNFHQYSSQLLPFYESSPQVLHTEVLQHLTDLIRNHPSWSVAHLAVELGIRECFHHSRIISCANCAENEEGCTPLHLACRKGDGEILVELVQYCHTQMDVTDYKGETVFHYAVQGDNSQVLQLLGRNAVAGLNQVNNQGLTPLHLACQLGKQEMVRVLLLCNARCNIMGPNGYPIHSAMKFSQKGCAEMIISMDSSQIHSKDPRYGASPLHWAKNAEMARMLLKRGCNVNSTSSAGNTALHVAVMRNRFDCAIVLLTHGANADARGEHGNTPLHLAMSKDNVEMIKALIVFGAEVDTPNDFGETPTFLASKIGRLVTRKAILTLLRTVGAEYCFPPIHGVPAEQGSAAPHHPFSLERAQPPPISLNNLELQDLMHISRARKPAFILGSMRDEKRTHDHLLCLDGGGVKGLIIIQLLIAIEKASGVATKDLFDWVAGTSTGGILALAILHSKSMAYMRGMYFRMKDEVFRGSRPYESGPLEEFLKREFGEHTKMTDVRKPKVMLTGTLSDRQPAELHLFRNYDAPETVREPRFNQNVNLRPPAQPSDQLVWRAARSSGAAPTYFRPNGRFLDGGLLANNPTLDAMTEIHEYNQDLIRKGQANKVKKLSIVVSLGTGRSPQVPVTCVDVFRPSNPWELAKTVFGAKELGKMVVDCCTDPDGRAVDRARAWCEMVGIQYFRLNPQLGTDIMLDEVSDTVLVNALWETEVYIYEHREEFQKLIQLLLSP
The experiment in a line: In vitro Group VIA iPLA2 mixed micelle assay. Particulars: for iPLA2 inh, XI(50): Table 3; for inhibition at 0.091 mole fraction: read-out: iPLA2 inh, percent inhibition; for Inhibition of GVIA PLA2: at highest dose. How it is done:
as §1, §2

Another experiment addresses T3, GV sPLA2 (Homo sapiens, UniProt P39877).
T3 sequence (P39877 21-138): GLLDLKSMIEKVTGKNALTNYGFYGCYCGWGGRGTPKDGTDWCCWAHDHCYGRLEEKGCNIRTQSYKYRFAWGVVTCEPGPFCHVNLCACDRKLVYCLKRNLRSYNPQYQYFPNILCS
Briefly: GV sPLA2 activity assay. Particulars: for inhibition at 0.091 mole fraction: read-out: sPLA2 inh., percent inhibition; for efficacy against sPLA2: at 0.091 mole fraction. How it is done:
GV sPLA2 activity was measured in a similar assay. The final assay buffer was composed of 50 mM Tris-HCl (pH 8.0) and 5 mM CaCl2. Each assay was performed in 500 μL total volume made up of 100 μL of 5× substrate solution (20 μL of 10 mM Triton X-100 and 80 μL assay buffer), 390 μL assay buffer, 10 μL GV sPLA2 solution (1 μL of 40 ng/μL stock and 9 μL assay buffer), and 5 μL of DMSO or 2-oxoamide in DMSO. The 5× substrate solution was prepared by drying down the phospholipids (in organic solvent) with N2. The appropriate volume of 10 mM Triton X-100 was added, heated and vortexed until clear. Then assay buffer was added to make a 5× substrate solution. The final mixed micelles were at 400 μM Triton X-100 and 100 μM DPPC (of which 100,000 cpm of ^14C-DPPC).

Structures are written as SMILES. “Also recorded” adds a separate entry of the source.

In the case of `CCC[C@@H](CCCCC(=O)OCC)NC(=O)C(=O)CC` [AX065], the figures for the inhibition at 0.091 mole fraction (in experiment [1]; on GV sPLA2) were 61.8% and 23.2%, respectively. The “iPLA2 inh, XI(50)” value in experiment [2] is “XI(50) =0.054 ± .016 mole fraction”.

Regarding `CCC[C@H](NC(=O)C(=O)CC)C(=O)NCC(=O)OCC` [AX127], the inhibition (as a rule, the relative decrease from the control value, in per cent) at 0.091 mole fraction in experiment [1] was 72.6%; in experiment [2], 93.9%; at GV sPLA2, 63.1%.

For the compound `CCC(=O)C(=O)NCCC(=O)OC(C)(C)C` [AX113], the inhibition at 0.091 mole fraction in experiment [1] is 79.2%; in experiment [2], 54%; at GV sPLA2, 100%. Also, the “efficacy against sPLA2” value on GV sPLA2 was “about 100%”.

In the case of `CCC[C@@H](COCC(=O)OCC)NC(=O)C(=O)CC` [AX128], the inhibition at 0.091 mole fraction in experiment [1] was 52.3%; in experiment [2], 92.8%; on GV sPLA2 it was 80.6%.

Turning to `CCC(=O)C(N)=O` [AX001], in experiment [1], the “inhibition of GIVA PLA2 (cPLA2), in words” value was “neither exhibits significant inhibition” and the “Inhibition of GIVA PLA2” value is recorded as “ND (negligible inhibition (0-25%) at highest dose)”. In experiment [2], the “inhibition of GVIA PLA2 (iPLA2), in words” value is on record as “neither exhibits significant inhibition” and the “Inhibition of GVIA PLA2” value is “ND^a (negligible inhibition (0-25%) at highest dose)”.

For the compound `CCOC(=O)CNC(=O)C(=O)CC` [AX114], the inhibition at 0.091 mole fraction in experiment [1] is 73.7%; in experiment [2], 61.6%; at GV sPLA2, 99.8%.

In the case of `CCC(=O)C(=O)NCCCC(=O)OCc1ccccc1` [AX116], the inhibition at 0.091 mole fraction is 34.8% in experiment [1], 10.7% in experiment [2] and 57.5% at GV sPLA2.

For the compound `NC(=O)C(=O)CCCCc1ccccc1` [AX015], in experiment [1], the “inhibition of GIVA PLA2 (cPLA2), in words” value was “neither exhibits significant inhibition; also recorded: no significant activity” and the “Inhibition of GIVA PLA2” value is reported as “ND (negligible inhibition (0-25%) at highest dose)”. In experiment [2], the “inhibition of GVIA PLA2 (iPLA2), in words” value is given as “neither exhibits significant inhibition; also recorded: no significant activity” and the “Inhibition of GVIA PLA2” value was “ND (negligible inhibition (0-25%) at highest dose)”. Moreover, the “efficacy against sPLA2” value on GV sPLA2 turned out to be 45.3%.

For the compound `CC/C=C\CC(=O)C(=O)NCCCC(=O)OCC` [AX110], the inhibition at 0.091 mole fraction is 69.9% in experiment [1], 52.8% in experiment [2] and 96.6% on GV sPLA2.

With `CC/C=C\CC(=O)C(=O)NCCCC(=O)OC(C)(C)C` [AX055], the “cPLA2 inh, XI(50)” value in experiment [1] is recorded as “XI(50) =0.014 ± .009 mole fraction”. For the same compound, the “iPLA2 inh, XI(50)” value in experiment [2] is “XI(50) =0.054 ± .004 mole fraction”. Moreover, the inhibition at 0.091 mole fraction on GV sPLA2 is 85.3%.

In the case of `CCC[C@@H](/C=C/C(=O)OCC)NC(=O)C(=O)CC` [AX093], in experiment [1], the “cPLA2 inh, XI(50)” value is “XI(50) =0.031 ± .011 mole fraction”. Moreover, the inhibition at 0.091 mole fraction in experiment [2] stood at 66.5%; on GV sPLA2 it was 78.3%.

Take `CCCC[C@H](NC(=O)C(=O)CC)C(=O)NCC(=O)OC(C)(C)C` [AX121]: the inhibition at 0.091 mole fraction in experiment [1] was 72%; in experiment [2], 89.6%; on GV sPLA2, 58.5%.

As to `CCNC(=O)C(=O)CC` [AX009], in experiment [1], the “inhibition of GIVA PLA2 (cPLA2), in words” value was “no detectable inhibition of GIVA PLA2” and the “Inhibition of GIVA PLA2” value is given as “ND (negligible inhibition (0-25%) at highest dose)”. In addition, in experiment [2], the “inhibition of GVIA PLA2 (iPLA2), in words” value is given as “limited inhibition of GVIA PLA2” and the “Inhibition of GVIA PLA2” value is on record as “LD (limited inhibition (25-50%) at highest dose)”.

For the compound `CCNC(=O)C(=O)CC` [AX002], in experiment [1], the “inhibition of GIVA PLA2 (cPLA2), in words” value is listed as “no detectable inhibition of GIVA PLA2” and the “Inhibition of GIVA PLA2” value is on record as “ND (negligible inhibition (0-25%) at highest dose)”. In experiment [2], the “inhibition of GVIA PLA2 (iPLA2), in words” value is “limited inhibition of GVIA PLA2” and the “Inhibition of GVIA PLA2” value is on record as “LD^b (limited inhibition (25-50%) at highest dose)”.

As to `CCCCC(=O)CCCNC(=O)C(=O)CC` [AX082], the inhibition at 0.091 mole fraction in experiment [1] was 31.8%; at GV sPLA2, 7.4%.
